Measured values: patent US8735436B2, “Polyunsaturated fatty acids for the treatment of diseases related to cardiovascular, metabolic and inflammatory disease areas” (Pronova Biopharma Norge AS, priority 2009, dated 2014)
pEC50: −log10 of the molar value.

Assays:
Test in all cases: PPAR activation in vitro, mammalian-one-hybrid (M1H) GAL4-PPAR-LBD luciferase reporter assay
Format in all cases: cell-based
PPARδ = target: T1, PPARδ (Homo sapiens, UniProt Q03181); details: for PPARδ Efficacy: HEK293 cells, efficacy of positive control (GW501516) set to 100%; for PPARδ EC50: transiently transfected HEK293 cells, compound incubation 16-20 h, six concentrations in duplicate
T1 construct: expressed in transfected cells; host or cells: HEK293
T1 sequence (Q03181 211-439 limits assumed): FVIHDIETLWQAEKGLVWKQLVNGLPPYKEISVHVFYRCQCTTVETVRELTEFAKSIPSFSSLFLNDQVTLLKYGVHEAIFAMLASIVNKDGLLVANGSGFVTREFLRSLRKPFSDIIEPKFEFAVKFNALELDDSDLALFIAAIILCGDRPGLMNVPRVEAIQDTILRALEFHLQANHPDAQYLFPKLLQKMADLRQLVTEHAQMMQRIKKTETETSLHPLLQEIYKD
Experimental: (§1) The assays were carried out in vitro using mammalian-one-hybrid assays (M1H) comprising GAL4-DNA binding domain-PPAR-LBD fusion constructs in conjunction with 5×GAL4-sites driven Photinus pyralis luciferase reporter constructs in transiently transfected HEK293 cells.
(§2) The cells were transfected 4-6 h and grown overnight before compounds were added. Compound incubation was 16-20 h.
(§3) Renilla reniformis luciferase, driven by a constitutive promoter, was included as internal control to improve experimental accuracy.
(§4) The compounds (A-C) and a positive control were tested at six different concentrations in duplicate. The positive controls were GW7647 (PPARα), GW501516 (PPARδ) and rosiglitazone (PPARγ). The efficacy of the controls were set to 100%.

PPARγ = target: T2, PPARγ (Homo sapiens, UniProt P37231); details: for PPARγ Efficacy: HEK293 cells, efficacy of positive control (rosiglitazone) set to 100%; for pEC50: transiently transfected HEK293 cells, compound incubation 16-20 h, six concentrations in duplicate
T2 construct: expressed in transfected cells; host or cells: HEK293
T2 sequence (P37231 238-503 limits assumed): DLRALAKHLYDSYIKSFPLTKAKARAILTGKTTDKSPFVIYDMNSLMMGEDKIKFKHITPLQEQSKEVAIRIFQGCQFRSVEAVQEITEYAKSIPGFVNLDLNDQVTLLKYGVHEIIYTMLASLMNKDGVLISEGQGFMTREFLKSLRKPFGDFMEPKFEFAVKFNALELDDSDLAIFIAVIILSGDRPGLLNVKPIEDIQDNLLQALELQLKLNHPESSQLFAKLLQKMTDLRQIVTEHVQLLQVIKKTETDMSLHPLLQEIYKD
Experimental: as §1, §2, §3, §4

PPARα = target: T3, PPARα (Homo sapiens, UniProt Q07869); details: for PPARα Efficacy: HEK293 cells, efficacy of positive control (GW7647) set to 100%; for pEC50: transiently transfected HEK293 cells, compound incubation 16-20 h, six concentrations in duplicate
T3 construct: expressed in transfected cells; host or cells: HEK293
T3 sequence (Q07869 239-466 limits assumed): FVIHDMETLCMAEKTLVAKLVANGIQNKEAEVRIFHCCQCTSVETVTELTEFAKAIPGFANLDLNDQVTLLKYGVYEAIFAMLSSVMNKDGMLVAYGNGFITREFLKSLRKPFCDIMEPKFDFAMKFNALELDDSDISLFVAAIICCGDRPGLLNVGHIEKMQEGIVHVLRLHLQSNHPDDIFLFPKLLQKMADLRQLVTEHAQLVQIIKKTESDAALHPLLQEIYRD
Experimental: as §1, §2, §3, §4

CC/C=C\C/C=C\C/C=C\C/C=C\C/C=C\CCCCOC(CC)C(=O)O (stereo not drawn) [A]
PPARδ Efficacy (PPARδ): inactive
PPARδ EC50 (PPARδ): inactive
PPARγ Efficacy (PPARγ): 22%
pEC50 (PPARγ): 6.09
PPARα Efficacy (PPARα): 82%
pEC50 (PPARα): 6.51

CC/C=C\C/C=C\C/C=C\C/C=C\C/C=C\CCCCO[C@H](CC)C(=O)O [C]
PPARδ Efficacy (PPARδ): inactive
PPARδ EC50 (PPARδ): inactive
PPARγ Efficacy (PPARγ): 25%
pEC50 (PPARγ): 6.29
PPARα Efficacy (PPARα): 54%
pEC50 (PPARα): 6.78

CC/C=C\C/C=C\C/C=C\C/C=C\C/C=C\CCCCO[C@@H](CC)C(=O)O [B]
PPARδ Efficacy (PPARδ): inactive
PPARδ EC50 (PPARδ): inactive
PPARγ Efficacy (PPARγ): 27%
pEC50 (PPARγ): 6.19
PPARα Efficacy (PPARα): 86%
pEC50 (PPARα): 6.39
